# Assay results taken from ChEMBL document CHEMBL1201862, “PubChem BioAssay data set” (2004).
# Calls of active or inactive are those of the source.
# Tests used:
# [1] = half-maximal inhibitory concentration for glucagon-like peptide-1 release, STC-1 cell line, dose-response (AID 1117345); assay type: functional, cell-based
# [2] = Glucagon-like peptide 1 release potency, NCI-H716 cell line, dose-response, half-maximal inhibitory concentration (AID 1117344); assay type: functional, cell-based
# [3] = inhibitors of HIV Env-driven cell fusion, dose response, cherry-pick (AID 652057); assay type: functional, cell-based
# [4] = ZM109 Env clade C HIV-1 fusion inhibitors, dose response, HeLa effector, CEM target cells, luciferase, cherry-pick (AID 652058); assay type: functional, cell-based
# [5] = off-target signal loss in HeLa-CEM21 co-culture – HeLa F-luc CTL cells, cherry-picked, counter-screen for HIV-1 Env fusion inhibitor project, dose response (AID 652040); assay type: functional, cell-based;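 note: potency for signal decrease marking cytotoxic or nonspecific inhibition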
# Estrogen receptor = target: T1, Estrogen receptor (Homo sapiens, UniProt P03372);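 note: potency for inhibiting coactivator peptide recruitment to the receptor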
# T1 sequence (P03372 whole entry): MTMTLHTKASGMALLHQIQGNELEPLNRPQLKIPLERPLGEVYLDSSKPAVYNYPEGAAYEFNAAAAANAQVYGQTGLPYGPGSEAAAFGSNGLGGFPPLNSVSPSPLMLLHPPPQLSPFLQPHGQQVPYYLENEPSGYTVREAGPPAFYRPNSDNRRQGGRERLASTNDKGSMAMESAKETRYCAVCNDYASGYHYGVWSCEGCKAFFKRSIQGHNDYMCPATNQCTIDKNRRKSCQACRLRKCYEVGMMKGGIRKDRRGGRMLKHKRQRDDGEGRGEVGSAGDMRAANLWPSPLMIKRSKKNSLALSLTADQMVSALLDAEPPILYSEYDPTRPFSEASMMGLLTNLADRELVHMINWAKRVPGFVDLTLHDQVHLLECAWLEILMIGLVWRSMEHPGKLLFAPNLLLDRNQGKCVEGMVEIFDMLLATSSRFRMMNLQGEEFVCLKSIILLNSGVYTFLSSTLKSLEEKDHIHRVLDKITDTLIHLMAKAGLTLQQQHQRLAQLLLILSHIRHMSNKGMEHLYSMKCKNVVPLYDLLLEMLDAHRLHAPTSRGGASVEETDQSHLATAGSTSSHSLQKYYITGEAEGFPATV
# [6] = inhibitors of clade B AD8 Env fusion, dose response, cell-based, cherry-pick (AID 652062); assay type: functional;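 note: luciferase signal from cell-cell fusion driven by HIV-1 clade B AD8 Env; potency is for inhibitors of fusion seen as a drop in luminescence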
# [7] = target: T2, Luciferin 4-monooxygenase (Photinus pyralis, UniProt P08659); assay: Counter Screen for Luciferase-based Assay Positives. [Related pubchem assays: 620, 618, 411 ]
# T2 sequence (P08659 whole entry): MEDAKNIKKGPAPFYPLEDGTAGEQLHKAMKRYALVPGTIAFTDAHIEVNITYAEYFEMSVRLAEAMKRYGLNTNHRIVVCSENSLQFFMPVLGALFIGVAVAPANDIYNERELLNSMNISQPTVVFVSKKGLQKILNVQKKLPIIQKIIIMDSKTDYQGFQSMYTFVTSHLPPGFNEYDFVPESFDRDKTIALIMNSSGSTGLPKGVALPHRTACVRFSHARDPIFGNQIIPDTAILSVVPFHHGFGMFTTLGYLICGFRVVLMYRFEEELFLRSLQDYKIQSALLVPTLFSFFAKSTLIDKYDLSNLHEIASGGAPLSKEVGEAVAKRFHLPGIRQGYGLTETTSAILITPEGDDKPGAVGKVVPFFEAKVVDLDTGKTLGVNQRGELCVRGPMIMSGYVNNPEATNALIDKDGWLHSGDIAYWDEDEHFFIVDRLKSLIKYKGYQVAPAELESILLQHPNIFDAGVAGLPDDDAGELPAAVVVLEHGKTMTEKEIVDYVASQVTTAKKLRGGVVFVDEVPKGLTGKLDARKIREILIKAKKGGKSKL
# HT-1080 = assay: cytotoxicity in HT1080 fibrosarcoma cells, cell-based, fluorescence readout (AID 620); assay type: functional; details: Homo sapiens
# HeLa = assay: HeLa cell cytotoxicity, dose response, cytotoxicity control for MITF activator project, CellTiter-Glo luminescence, cherry-pick samples (AID 540259); assay type: functional, cell-based; details: Homo sapiens
# [8] = target: NAD-dependent protein deacylase sirtuin-5, mitochondrial (Homo sapiens, UniProt Q9NXA8); assay: SIRT5 desuccinylase inhibitors, dose response, biochemical, fluorescence imaging, cherry-pick, set 5 (AID 720591);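 note: desuccinylation of succinyl peptide AMC substrate read as fluorescence after trypsin release; potency of inhibitors that lower fluorescence and may act on trypsin instead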
# Sequence of NAD-dependent protein deacylase sirtuin-5, mitochondrial (Q9NXA8 whole entry): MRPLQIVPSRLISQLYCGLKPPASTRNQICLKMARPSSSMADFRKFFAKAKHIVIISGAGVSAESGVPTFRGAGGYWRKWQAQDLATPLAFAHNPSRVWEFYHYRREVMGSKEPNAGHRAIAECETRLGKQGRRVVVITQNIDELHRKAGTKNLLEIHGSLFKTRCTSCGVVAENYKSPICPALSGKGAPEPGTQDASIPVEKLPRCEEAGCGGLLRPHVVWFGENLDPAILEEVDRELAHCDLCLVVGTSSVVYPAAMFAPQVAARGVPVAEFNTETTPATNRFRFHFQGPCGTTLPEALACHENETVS
# [9] = target: T2, Luciferin 4-monooxygenase; assay: firefly luciferase enzyme inhibitors, dose response, biochemical, luminescence (AID 1891)
# BJ [10] = assay: cytotoxicity toward BJ-TERT fibroblasts, dose response, cell-based, RAS-independent, luminescence (AID 1933); assay type: functional; details: Homo sapiens
# [11] = cytotoxicity toward DRD oncogenic fibroblasts, dose response, cell-based, non-viral oncogenic, luminescence (AID 1934); assay type: functional; details: Homo sapiens
# BJ [12] = assay: cells; assay type: functional, cell-based; details: Homo sapiens
# BJ [13] = assay: cytotoxicity toward BJ-TERT-LT-ST fibroblasts, dose response, cell-based, RAS-independent, luminescence (AID 1935); assay type: functional; details: Homo sapiens;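 note: BJ fibroblasts immortalized with TERT plus LT and ST oncogenes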
# [14] = Luminescence Cell-Based Dose Confirmation HTS to Identify Inhibitors of Platelet Dense Granule Release. [Related pubchem assays: 1663 (Primary HTS), 1678 (Summary of Project)]; assay type: functional
# [15] = MC4R antagonists, dose response, counter-screen for LGR2 antagonist project, cell-based, plate reader, cherry pick (AID 743444); assay type: functional;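 note: transfected HEK 293 cells stimulated with alpha-MSH peptide; potency of inhibitors of the alpha-MSH evoked signal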
# Protein skinhead-1 = target: T3, Protein skinhead-1 (Caenorhabditis elegans, UniProt P34707); assay type: functional
# T3 sequence (P34707 whole entry): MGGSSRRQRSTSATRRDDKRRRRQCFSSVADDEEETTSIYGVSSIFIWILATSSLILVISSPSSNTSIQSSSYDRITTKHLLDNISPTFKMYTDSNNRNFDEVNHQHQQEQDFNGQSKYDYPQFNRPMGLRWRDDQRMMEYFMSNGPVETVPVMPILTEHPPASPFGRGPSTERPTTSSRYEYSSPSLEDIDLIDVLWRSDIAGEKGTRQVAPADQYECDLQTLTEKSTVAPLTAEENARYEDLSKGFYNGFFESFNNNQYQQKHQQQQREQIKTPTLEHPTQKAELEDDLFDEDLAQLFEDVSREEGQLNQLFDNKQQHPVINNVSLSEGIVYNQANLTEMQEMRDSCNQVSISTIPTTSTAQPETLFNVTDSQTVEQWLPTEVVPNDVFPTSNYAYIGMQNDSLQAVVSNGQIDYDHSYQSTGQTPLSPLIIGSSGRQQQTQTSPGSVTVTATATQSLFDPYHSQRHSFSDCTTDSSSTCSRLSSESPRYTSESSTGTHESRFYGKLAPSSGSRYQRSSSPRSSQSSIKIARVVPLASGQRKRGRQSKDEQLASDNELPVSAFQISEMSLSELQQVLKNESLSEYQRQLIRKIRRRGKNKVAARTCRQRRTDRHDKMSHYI
# [16] = target: T4, Heat shock factor protein 1 (Mus musculus, UniProt P38532); assay: inhibition of MG132-induced HSE-luciferase signal, confirmation, cell-based, NIH3T3, luminescence, dose retest (AID 2382); assay type: functional;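 note: NIH3T3 fibroblasts with HSF1-driven luciferase reporter stressed by proteasome inhibitor MG132; luminescence from HSF1-driven luciferase expression after 8 hours of MG132 stress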
# T4 sequence (P38532 whole entry): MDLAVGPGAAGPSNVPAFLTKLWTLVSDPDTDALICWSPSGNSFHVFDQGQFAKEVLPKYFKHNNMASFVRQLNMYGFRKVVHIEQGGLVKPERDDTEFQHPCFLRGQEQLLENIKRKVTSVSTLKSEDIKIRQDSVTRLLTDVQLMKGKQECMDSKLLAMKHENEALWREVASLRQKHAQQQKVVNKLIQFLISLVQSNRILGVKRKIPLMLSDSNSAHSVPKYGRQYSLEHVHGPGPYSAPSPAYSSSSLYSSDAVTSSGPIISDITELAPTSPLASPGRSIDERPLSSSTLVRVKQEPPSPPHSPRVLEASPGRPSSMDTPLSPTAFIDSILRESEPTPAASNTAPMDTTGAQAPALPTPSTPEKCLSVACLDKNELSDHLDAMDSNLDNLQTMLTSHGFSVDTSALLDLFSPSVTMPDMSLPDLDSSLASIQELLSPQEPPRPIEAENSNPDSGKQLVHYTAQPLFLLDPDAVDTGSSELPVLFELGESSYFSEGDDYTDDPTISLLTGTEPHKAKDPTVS
# [17] = LGR2 antagonists, dose response, cell-based, HEK293, CRE-luciferase reporter, cherry pick, set 2 (AID 743343); assay type: functional;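 note: transfected cells were stimulated with diluted bursicon conditioned medium after compound addition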
# [18] = A549 cell cytotoxicity, dose response, cytotoxicity control, plate reader, cherry-pick, antagonist series (AID 743412); assay type: functional, cell-based
# [19] = target: T5, Acyl-homoserine lactone acylase PvdQ (Pseudomonas aeruginosa (strain LESB58), UniProt Q9I194); assay: P. aeruginosa PvdQ acylase inhibitors, dose response, biochemical, fluorescence, plate reader and imaging, cherry-picks (AID 493231)
# T5 sequence (Q9I194 whole entry): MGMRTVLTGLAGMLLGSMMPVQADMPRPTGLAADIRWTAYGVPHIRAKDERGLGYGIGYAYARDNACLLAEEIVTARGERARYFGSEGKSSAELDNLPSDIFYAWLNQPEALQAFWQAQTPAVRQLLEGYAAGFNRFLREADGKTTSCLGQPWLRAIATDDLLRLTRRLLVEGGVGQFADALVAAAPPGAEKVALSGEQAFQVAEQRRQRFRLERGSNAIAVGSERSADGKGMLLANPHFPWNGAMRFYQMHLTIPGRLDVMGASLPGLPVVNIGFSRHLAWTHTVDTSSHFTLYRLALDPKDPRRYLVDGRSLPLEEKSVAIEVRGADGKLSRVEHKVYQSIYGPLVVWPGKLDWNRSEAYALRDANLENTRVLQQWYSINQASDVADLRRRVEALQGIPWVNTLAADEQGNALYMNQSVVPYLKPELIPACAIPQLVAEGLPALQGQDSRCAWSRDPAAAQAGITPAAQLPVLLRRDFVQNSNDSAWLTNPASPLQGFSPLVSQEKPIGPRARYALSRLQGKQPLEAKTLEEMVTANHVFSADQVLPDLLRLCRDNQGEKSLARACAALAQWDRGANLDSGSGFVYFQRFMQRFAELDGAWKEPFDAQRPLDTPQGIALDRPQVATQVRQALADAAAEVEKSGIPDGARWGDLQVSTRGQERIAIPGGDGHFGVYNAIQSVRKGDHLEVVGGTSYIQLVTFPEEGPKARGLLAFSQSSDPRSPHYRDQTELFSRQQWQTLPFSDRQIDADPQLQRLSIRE
# [20] = THP-1 cell cytotoxicity, dose response, cytotoxicity control for Vif-APOBEC3G degradation inhibitor project, THP-1 cells (AID 1117359); assay type: functional; details: Human immunodeficiency virus 1, THP-1
# [21] = Jurkat T cell cytotoxicity, dose response, cytotoxicity control for P. falciparum gametocyte viability project, luminescence (AID 1117277); assay type: functional, cell-based;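 note: potency reflects loss of cellular ATP meaning fewer viable cells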
# [22] = P. falciparum late gametocyte killing, dose response, luminescence (AID 1117278); assay type: functional, cell-based;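 note: gametocytes exposed to compound for 24 hours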
# [23] = target: T6, RNA-editing ligase 1, mitochondrial (Trypanosoma brucei brucei, UniProt P86926); assay: TbREL1 ligase inhibitors, dose response, biochemical, fluorescence, Trypanosoma brucei (AID 1117295); assay type: functional
# T6 sequence (P86926 whole entry): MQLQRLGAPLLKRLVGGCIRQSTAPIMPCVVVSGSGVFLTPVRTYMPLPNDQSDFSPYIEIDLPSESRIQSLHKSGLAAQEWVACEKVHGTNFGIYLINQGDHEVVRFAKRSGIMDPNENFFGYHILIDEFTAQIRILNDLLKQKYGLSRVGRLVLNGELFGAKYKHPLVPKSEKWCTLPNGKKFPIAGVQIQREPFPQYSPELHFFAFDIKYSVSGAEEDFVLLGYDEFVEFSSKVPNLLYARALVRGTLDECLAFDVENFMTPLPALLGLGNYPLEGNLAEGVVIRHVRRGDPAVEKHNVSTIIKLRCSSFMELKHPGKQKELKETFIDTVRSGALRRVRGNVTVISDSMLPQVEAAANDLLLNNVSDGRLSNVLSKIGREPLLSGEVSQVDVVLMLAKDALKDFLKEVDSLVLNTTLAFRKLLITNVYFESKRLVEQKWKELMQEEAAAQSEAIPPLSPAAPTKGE
# [24] = P. falciparum Dd2 growth inhibitors, dose response, SYBR Green, cherry-picked samples (AID 1159567); assay type: functional, cell-based
# [25] = HepG2 cell cytotoxicity, dose response, cytotoxicity control, cherry-picked samples (AID 1159577); assay type: functional, cell-based
smiles,measurement,setting,value
CCCCCCCCCCCCOCCOCCOCCOCCOCCOCCOCCOCCOCCO,IC50,[1],30.4 µM (inactive)
same,IC50,[2],> 40 µM (inactive)
Cc1ccc(C(C(=O)NC(C)(C)C)N(Cc2cccs2)C(=O)c2csnn2)cc1 (stereo not drawn),AC50,[3],10.2 µM (active)
same,AC50,[4],17.5 µM (active)
same,AC50,[5],22.6 µM (active)
same,IC50,Estrogen receptor,> 50 µM (not active)
same,AC50,[6],1.67 µM (active)
Cc1ccc(SCc2cn3c(C)csc3n2)cc1,EC50,[7],< 0.2 µM (active)
same,EC50,HT-1080,> 50 µM (not active)
same,AC50,HeLa,54.9 µM (active)
O=C1NNC(=O)C1c1ccccc1,AC50,[8],> 30 µM (inactive)
O=C(Nc1ccccn1)c1cc2ccccc2o1,EC50,[7],0.22 µM (active)
same,EC50,[9],3.03 µM (active)
same,EC50,HT-1080,> 50 µM (not active)
same,EC50,BJ [10],11.2 µM (active)
same,EC50,[11],11.2 µM (active)
same,EC50,BJ [12],16.1 µM (active)
same,EC50,BJ [13],> 150 µM (inconclusive)
same,EC50,[14],3.9 µM (active)
CCOc1ccc(-c2cnc3ccccc3n2)cc1,AC50,[15],1.8 µM (active)
same,IC50,Protein skinhead-1,> 100 µM (inactive)
same,EC50,[16],10 µM (active)
same,AC50,[17],1.77 µM (active)
same,AC50,[18],30.8 µM (active)
same,AC50,[19],97.4 µM (active)
CC(C)(C)NC(=O)c1cc(Cl)ccc1[N+](=O)[O-],AC50,[19],11.5 µM (active)
O=C(NNC(=O)c1ccccc1O)c1cc2ccccc2o1,CC50,[20],19.2 µM (active)
Cc1cc(N)n2nc(-c3ccccc3)cc2n1,EC50,[7],1.04 µM (active)
same,EC50,HT-1080,> 50 µM (not active)
COc1ccccc1C(C#N)c1cccc(Cl)n1 (stereo not drawn),AC50,[19],0.85 µM (active)
Cc1cccc(NC(=O)c2csnn2)n1,IC50,[21],> 83.3 µM (inactive)
same,IC50,[22],> 109 µM (inactive)
COc1ccc(C(=O)NCC(=O)N2CCc3ccccc3C2)cc1,IC50,[21],> 83.3 µM (inactive)
same,IC50,[22],> 109 µM (inactive)
CCc1ccc(NC(=O)C[n+]2cc(-c3ccc(C)cc3)n3c2CCC3)cc1,IC50,[23],> 96.6 µM (inactive)
COCCNC(=O)c1cccc(OC2CCN(Cc3ccc(OC(F)F)cc3)CC2)c1,AC50,[8],> 30 µM (inactive)
Nc1ccc(Cl)cc1C(=O)c1ccccc1F,IC50,[1],> 40 µM (inactive)
same,IC50,[2],> 40 µM (inactive)
N#Cc1ccc(-c2ccc([C@@H]3[C@@H]4CN(C(=O)Nc5ccc(C(F)(F)F)cc5)C[C@H]3N4)cc2)cc1,AC50,[24],5.94 µM (active)
same,AC50,[25],20.5 µM (active)
COC(=O)C1=C(C)N(Cc2ccc(C(F)(F)F)cc2)C(NCC2CC2)=NC1c1ccccc1C(F)(F)F (stereo not drawn),IC50,[23],> 96.6 µM (inactive)
COc1ccc2c3c([nH]c2c1)[C@H](CO)N(Cc1ccc(Cl)cc1)CC31CN(Cc2nccs2)C1,AC50,[24],4.85 µM (active)
same,AC50,[25],31.9 µM (active)
